ChEMBL document CHEMBL1137972, “Synthesis and anti-HCMV activity of 1-acyl-beta-lactams and 1-acylazetidines derived from phenylalanine” (Bioorg Med Chem Lett, 2004)

Experiments:
HEL [1] = experiment: Effective concentration against human cytomegalovirus AD-169 strain in HEL cell cultures; assay type: functional, cell-based
HEL [2] = experiment: Cytotoxic concentration required to reduce HEL cell growth by 50%; assay type: functional; conditions: Homo sapiens
HEL [3] = experiment: Effective concentration against human cytomegalovirus Davies strain in HEL cell cultures; assay type: functional, cell-based

Structure (SMILES) | EC50 (HEL [1]) | CC50 (HEL [2]) | EC50 (HEL [3])
C[C@@H](NC(=O)N1C(=O)C[C@@]1(Cc1ccccc1)C(=O)O)c1ccccc1 | > 200 µM | > 200 µM | > 200 µM
C[C@H](NC(=O)N1C(=O)C[C@@]1(Cc1ccccc1)C(=O)OC(C)(C)C)c1ccccc1 | 35 µM | 184 µM | 35 µM
C[C@@H](NC(=O)N1C(=O)C[C@]1(Cc1ccccc1)C(=O)OC(C)(C)C)c1ccccc1 | 100 µM | > 200 µM | 107 µM
CC(C)(C)OC(=O)C1(Cc2ccccc2)CCN1C(=O)OCc1ccccc1 (centres undefined) | 0.74 µM | 34 µM | 0.62 µM
CC(C)(C)OC(=O)C1(Cc2ccccc2)CC(=O)N1C(=O)OCc1ccccc1 (centres undefined) | 11 µM | 36 µM | 13 µM
C[C@@H](NC(=O)N1C(=O)C[C@]1(Cc1ccccc1)C(=O)O)c1ccccc1 | > 50 µM | > 200 µM | > 50 µM
Nc1nc2c(ncn2COC(CO)CO)c(=O)[nH]1 [GANCICLOVIR] | 0.9 µM | > 150 µM | 0.8 µM
Nc1ccn(C[C@@H](CO)OCP(=O)(O)O)c(=O)n1 [CIDOFOVIR] | 0.16 µM | > 150 µM | 0.5 µM
C[C@H](NC(=O)N1C(=O)C[C@@]1(Cc1ccccc1)C(=O)O)c1ccccc1 | > 50 µM | 187 µM | > 50 µM
C[C@@H](NC(=O)N1C(=O)C[C@@]1(Cc1ccccc1)C(=O)OC(C)(C)C)c1ccccc1 | 32 µM | 70 µM | 33 µM
O=C1C[C@H](Cc2ccccc2)N1C(=O)NCc1ccccc1 | 53 µM | > 750 µM | 
CC(C)(C)OC(=O)N1C(=O)CC1(Cc1ccccc1)C(=O)OC(C)(C)C (centres undefined) | > 200 µM | > 200 µM | > 200 µM
CC(C)(C)OC(=O)C1(Cc2ccccc2)CC(=O)N1C(=O)Nc1ccccc1 (centres undefined) | 50 µM | 118 µM | 50 µM
C[C@H](NC(=O)N1C(=O)C[C@]1(Cc1ccccc1)C(=O)OC(C)(C)C)c1ccccc1 | 32 µM | 164 µM | 33 µM
C[C@H](NC(=O)N1C(=O)C[C@]1(Cc1ccccc1)C(=O)O)c1ccccc1 | > 200 µM | > 200 µM | > 200 µM
